Measured values reported in US10669268B2, “Bicyclic derivatives” (Hoffmann-La Roche Inc., priority 2012, dated 2020).
Where a name gives a salt, the structure may show the parent alone.

Molecular target: ATX (human His-tagged) (Homo sapiens (Human), UniProt Q13822)
Experiment: Human ATX enzyme inhibition assay (fluorescence quenching, MR121 substrate)
Format: biochemical
Details: 30 nM ATX, 1 μM MR121 substrate, 30° C., pH 8.0
Experimental: Human ATX Enzyme Inhibition Assay
Assay working solutions were made as follows:
Assay buffer (50 mM Tris-HCl, 140 mM NaCl, 5 mM KCl, 1 mM CaCl2, 1 mM MgCl2, 0.01% Triton-X-100, pH 8.0;
MR121 substrate solution: MR121 substrate stock solution (800 μM MR121 substrate in DMSO), diluted to 2-5× final concentration in assay buffer.
10 μL of MR121 substrate solution was added (1 μM final concentration), mixed 30 times and then incubated for 15 minutes at 30° C.

Work on `O=C(CCc1cc(Cl)cc(Cl)c1)N1C[C@H]2CN(Cc3ccc4[nH]c(=O)oc4c3)C[C@H]2C1` [Example 6.04] yielded an IC50 of 282 nM.

Molecule `O=C(CCc1ccccc1)N1C[C@@H]2CN(C(=O)c3ccc4[nH]nnc4c3)C[C@H]2C1` [Example 15.57] has an IC50 of 494 nM.

`O=C(/C=C/c1ccc(OC(F)(F)F)cc1)N1CC[C@@H]2CN(C(=O)[C@H]3CCc4[nH]nnc4C3)C[C@@H]2CC1` [Example 1.20, (E)-1-[(3aS,8aR)-2-((S)-4,5,6,7-tetrahydro-1H-benzotriazole-5-carbonyl)-octahydro-pyrrolo[3,4-d]azepin-6-yl]-3-(4-trifluoromethoxy-phenyl)-prop-2-en-1-one] gave an IC50 of 83 nM.

In the case of `CS(=O)(=O)c1cc(Cl)cc(/C=C/C(=O)N2C[C@@H]3CN(C(=O)c4ccc5[nH]nnc5c4)C[C@H]3C2)c1` [Example 15.46], the IC50 is reported as 18 nM.

`Cc1cc(OCC(=O)N2C[C@@H]3CN(C(=O)c4ccc5[nH]nnc5c4)C[C@H]3C2)c(C(C)C)cc1Cl` [Example 15.64] showed an IC50 of 5 nM.

`O=C(OCc1ccc(OC(F)(F)F)cc1)N1C[C@@H]2CN(C(=O)[C@@H]3CCc4[nH]nnc4C3)C[C@H]2C1` [Example 4.58, (3aS,6aS)-5-((R)-4,5,6,7-tetrahydro-1H-benzotriazole-5-carbonyl)-hexahydro-pyrrolo[3,4-c]pyrrole-2-carboxylic acid 4-trifluoromethoxy-benzyl ester] was tested, and the IC50 was 5.2 nM.

Molecule `O=C(OCC1C[C@H]2CC[C@@H]1C2)N1C[C@@H]2CN(C(=O)c3ccc4[nH]nnc4c3)C[C@@H]2C1` (stereo partly drawn) [Example 4.32, (3aS,6aR)-5-(1H-benzotriazole-5-carbonyl)-hexahydro-pyrrolo[3,4-c]pyrrole-2-carboxylic acid (1R,4S)-1-bicyclo[2.2.1]hept-2-ylmethyl ester] has an IC50 of 3850 nM.

With `O=C(OCc1cc(Cl)cc(Cl)c1)N1C[C@@H]2CN(C(=O)c3cc4c(cn3)[nH]c3ccccc34)C[C@@H]2C1` [Example 1.04, (3aR,6aS)-3,5-dichlorobenzyl 5-(9H-pyrido[3,4-b]indole-3-carbonyl)hexahydropyrrolo[3,4-c]pyrrole-2(1H)-carboxylate] the IC50 was 127 nM.

With `O=C(/C=C/c1ccc(F)cc1)N1CC[C@@H]2CN(C(=O)c3ccc4[nH]nnc4c3)C[C@@H]2CC1` [Example 15.14] the IC50 was 62 nM.

`O=C(OCc1cc(Cl)cc(Cl)c1)N1CC[C@@H]2CN(C(=O)c3ccc4[nH]nnc4c3)C[C@@H]2CC1` [Example 1.11, (3aR,8aS)-3,5-dichlorobenzyl 2-(1H-benzo[d][1,2,3]triazole-5-carbonyl)octahydropyrrolo[3,4-d]azepine-6(7H)-carboxylate] gave an IC50 of 4 nM.

Molecule `O=C(OCc1ccc(OC(F)F)cc1)N1C[C@@H]2CN(C(=O)c3ccc4[nH]nnc4c3)C[C@H]2C1` [Example 4.41, (3aS,6aS)-5-(1H-benzotriazole-5-carbonyl)-hexahydro-pyrrolo[3,4-c]pyrrole-2-carboxylic acid 4-difluoromethoxy-benzyl ester] has an IC50 of 9 nM.

Work on `O=C(c1ccc2[nH]nnc2c1)N1C[C@H]2CN(C(=O)[C@H]3CC[C@H](c4ccc(Cl)cc4)CC3)C[C@@H]2C1` [Example 19.17, [(3aR,6aR)-5-(1H-benzotriazole-5-carbonyl)-hexahydro-pyrrolo[3,4-c]pyrrol-2-yl]-[trans-4-(4-chloro-phenyl)-cyclohexyl]-methanone] yielded an IC50 of 10 nM.

`O=C(CCc1cc(Cl)cc(Cl)c1)N1C[C@@H]2CN(C(=O)c3ccc4[nH]nnc4c3)C[C@@H]2C1` [Example 1.01, 1-((3aR,6aS)-5-(1H-benzo[d][1,2,3]triazole-5-carbonyl)hexahydropyrrolo[3,4-c]pyrrol-2(1H)-yl)-3-(3,5-dichlorophenyl)propan-1-one] showed an IC50 of 35 nM.

With `O=C(/C=C/c1ccc(OC(F)(F)F)cc1)N1C[C@H]2CCN(C(=O)c3ccc4[nH]nnc4c3)C[C@@H]2C1` [Example 15.74] the IC50 was 12 nM.

`O=C(OCc1cc(Cl)cc(Cl)c1)N1CC[C@@H]2CN(C(=O)c3ccc4[nH]nnc4c3)C[C@H]2C1` (relative stereo) [Example 1.09, trans-3,5-dichlorobenzyl 2-(1H-benzo[d][1,2,3]triazole-5-carbonyl)hexahydro-1H-pyrrolo[3,4-c]pyridine-5(6H)-carboxylate] was tested, and the IC50 was 9 nM.

For `O=C(OCc1ccc(OCC(F)(F)F)cc1)N1CC[C@@H]2CN(C(=O)c3ccc4[nH]nnc4c3)C[C@@H]2CC1` [Example 1.48, (3aS,8aR)-2-(1H-benzotriazole-5-carbonyl)-octahydro-pyrrolo[3,4-d]azepine-6-carboxylic acid 4-(2,2,2-trifluoro-ethoxy)-benzyl ester], the IC50 was 7.5 nM.

Molecule `N#Cc1ccc(/C=C/C(=O)N2C[C@@H]3CN(C(=O)c4ccc5[nH]nnc5c4)C[C@H]3C2)cc1` [Example 15.23] has an IC50 of 32 nM.

`O=C(/C=C/c1ccc(C(F)(F)F)cc1)N1C[C@@H]2CN(C(=O)c3ccc4[nH]nnc4c3)C[C@H]2C1` [Example 15.58] showed an IC50 of 5 nM.

In the case of `CS(=O)(=O)c1cc(Cl)cc(COC(=O)N2C[C@@H]3CN(C(=O)N4CCc5[nH]nnc5C4)C[C@H]3C2)c1` [Example 4.34, (3aS,6aS)-5-(1,4,6,7-tetrahydro-[1,2,3]triazolo[4,5-c]pyridine-5-carbonyl)-hexahydro-pyrrolo[3,4-c]pyrrole-2-carboxylic acid 3-chloro-5-methanesulfonyl-benzyl ester], the IC50 is reported as 19 nM.

`O=C(OCc1cc(Cl)cc(Cl)c1)N1CC[C@@H]2CN(C(=O)c3ccc4[nH]nnc4c3)C[C@H]2C1` (single isomer, unassigned) [Example 11B, trans-3,5-dichlorobenzyl 2-(1H-benzo[d][1,2,3]triazole-5-carbonyl)-hexahydro-1H-pyrrolo[3,4-c]pyridine-5(6H)-carboxylate] showed an IC50 of 9 nM.

Molecule `O=C(NCc1cnn[nH]1)[C@H]1C[C@@H]2CN(C(=O)OCc3cc(Cl)cc(Cl)c3)C[C@@H]2C1` [Example 4.33, (3aR,5s,6aS)-5-[(3H-[1,2,3]triazol-4-ylmethyl)-carbamoyl]-hexahydro-cyclopenta[c]pyrrole-2-carboxylic acid 3,5-dichloro-benzyl ester] has an IC50 of 36 nM.

Work on `O=C(/C=C/c1ccc(OC(F)(F)F)cc1)N1CC[C@@H]2CN(C(=O)c3ccc4[nH]nnc4c3)C[C@@H]2CC1` [Example 15.70] yielded an IC50 of 7 nM.

`O=C(CCc1ccc(OC(F)(F)F)c(F)c1)N1C[C@@H]2CN(C(=O)c3ccc4[nH]nnc4c3)C[C@H]2C1` [Example 19.09, 1-[(3aR,6aR)-5-(1H-benzotriazole-5-carbonyl)-hexahydro-pyrrolo[3,4-c]pyrrol-2-yl]-3-(3-fluoro-4-trifluoromethoxy-phenyl)-propan-1-one] was tested, and the IC50 was 10 nM.

Work on `O=C(/C=C/c1ccc(-c2cccnc2)cc1)N1C[C@@H]2CN(C(=O)c3ccc4[nH]nnc4c3)C[C@H]2C1` [Example 15.80, (E)-1-[(3aR,6aR)-5-(1H-benzotriazole-5-carbonyl)-hexahydro-pyrrolo[3,4-c]pyrrol-2-yl]-3-(4-pyridin-3-yl-phenyl)-prop-2-en-1-one] yielded an IC50 of 60 nM.

With `O=C(/C=C/c1ccc(OC(F)(F)F)cc1)N1CC[C@@H]2CN(C(=O)[C@@H]3Cc4[nH]cnc4CN3)C[C@@H]2CC1` [Example 18, (E)-3-[4-(Trifluoro-methoxy)-phenyl]-1-[(3aS,8aR)-2-((S)-4,5,6,7-tetrahydro-1H-imidazo[4,5-c]pyridine-6-carbonyl)-octahydro-pyrrolo[3,4-d]azepin-6-yl]-prop-2-en-1-one hydrochloride] the IC50 was 6740 nM.

For `O=C(OCc1ccc(OCC(F)(F)F)cc1)N1C[C@@H]2CN(C(=O)c3ccc4[nH]nnc4c3)C[C@H]2C1` [Example 4.44, (3aS,6aS)-5-(1H-benzotriazole-5-carbonyl)-hexahydro-pyrrolo[3,4-c]pyrrole-2-carboxylic acid 4-(2,2,2-trifluoro-ethoxy)-benzyl ester], the IC50 was 6 nM.

`O=C(OCc1ccc(C(F)(F)F)cc1)N1C[C@@H]2CN(C(=O)[C@@H]3CCc4[nH]nnc4C3)C[C@H]2C1` [Example 4.59, (3aS,6aS)-5-((R)-4,5,6,7-tetrahydro-1H-benzotriazole-5-carbonyl)-hexahydro-pyrrolo[3,4-c]pyrrole-2-carboxylic acid 4-trifluoromethyl-benzyl ester] gave an IC50 of 9 nM.

`O=C(/C=C/c1ccc(OC(F)(F)F)cc1)N1C[C@@H]2CN(C(=O)c3ccc4[nH]nnc4c3)C[C@@H]2C1` [Example 15, (E)-1-((3aR,6aS)-5-(1H-Benzo[d][1,2,3]triazole-5-carbonyl)hexahydropyrrolo[3,4-c]pyrrol-2(1H)-yl)-3-(4-(trifluoromethoxy)phenyl)prop-2-en-1-one] was tested, and the IC50 was 26 nM.

In the case of `N#Cc1ccc(COC(=O)N2C[C@@H]3CN(C(=O)c4ccc5[nH]nnc5c4)C[C@H]3C2)c(OCC(F)(F)F)c1` [Example 4.66, (3aS,6aS)-5-(1H-benzotriazole-5-carbonyl)-hexahydro-pyrrolo[3,4-c]pyrrole-2-carboxylic acid 4-cyano-2-(2,2,2-trifluoro-ethoxy)-benzyl ester], the IC50 is reported as 40 nM.

`O=C(OCc1cc(F)cc(C(F)(F)F)c1)N1C[C@@H]2CN(C(=O)c3ccc4[nH]nnc4c3)C[C@@H]2C1` [Example 4.26, (3aS,6aR)-5-(1H-benzotriazole-5-carbonyl)-hexahydro-pyrrolo[3,4-c]pyrrole-2-carboxylic acid 3-fluoro-5-trifluoromethyl-benzyl ester] showed an IC50 of 51 nM.

For `O=C(CCc1ccc(OC(F)(F)F)cc1F)N1C[C@@H]2CN(C(=O)[C@@H]3CCc4[nH]nnc4C3)C[C@H]2C1` [Example 19.26, 1-[(3aR,6aR)-5-[(5R)-4,5,6,7-tetrahydro-1H-benzotriazole-5-carbonyl]-1,3,3a,4,6,6a-hexahydropyrrolo[3,4-c]pyrrol-2-yl]-3-[2-fluoro-4-(trifluoromethoxy)phenyl]propan-1-one], the IC50 was 5 nM.
